Experimental data from patent US20200131669A1, “CYCLIC PEPTIDE COMPOUND HAVING HIGH MEMBRANE PERMEABILITY, AND LIBRARY CONTAINING SAME” (Chugai Seiyaku Kabushiki Kaisha, priority 2017, published 2020).
Positions of bridges follow the written chain, without caps; N, C: chain ends. Non-standard residues stand in square brackets, D forms with d. Residues, ends and D or L forms follow the SMILES beside them. *: point of attachment. NMePhe(3-Cl) = CN[C@@H](Cc1cccc(Cl)c1)C(=O)O; NMeD = CN[C@@H](CC(=O)O)C(=O)O; NMeL = CN[C@@H](CC(C)C)C(=O)O; NMeV = CN[C@H](C(=O)O)C(C)C; Piperidide = C1CCN(*)CC1; dNMeA = CN[C@H](C)C(=O)O; Sar = CNCC(=O)O; tBu = CC(C)(C)*

How the values were obtained:
Caco-2 cells [1] = conditions: Ozeki et al. 2015, cited from earlier work; for decrease in the concentration on the Apical side: 120 minutes of incubation
[2] = Caco-2 membrane permeability, improved method as used in the following Examples (96-well, 20 to 24 h preincubation); type: in vitro ADME; conditions: human, Caco-2, Caco-2 (cm/sec)
Method in brief: (§1)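 Caco-2 monolayers were grown three weeks and preincubated 20–24 h at 37 °C with compound in DMEM+FaSSIF (1% DMSO) apically. The assay then used compound in FaSSIF/HBSS (1% DMSO, pH 6.0) apically and HBSS with 4% BSA (pH 7.4) basally. Basal samples were taken at 180 min for LC/MS, and Papp (cm/sec) was calculated.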

Caco-2 cells [3] = assay: as above; type: in vitro ADME; conditions: Caco-2
Method in brief: as §1

SMILES	decrease in the concentration on the Apical side (Caco-2 cells [1])	Papp A→B at 180 min [2] [×10⁻⁶ cm/s]	Caco-2 (Caco-2 cells [3]) [cm/s]	added drug distributed in the cells after completion of incubation (Caco-2 cells [1])
COCCc1ccc(OCC(O)CNC(C)C)cc1 (centres unmarked) [metoprolol]	approximately 20%	–	–	–
CC(C)C[C@H]1C(=O)N[C@@H]([C@@H](C)O)C(=O)N(C)CC(=O)N(C)[C@@H](C(C)C)C(=O)N[C@@H](Cc2ccccc2)C(=O)N(C)[C@@H](Cc2cccc(Cl)c2)C(=O)N(C)[C@@H](CC(C)C)C(=O)N(C)[C@H](C(=O)N2CCCCC2)CC(=O)N(C)[C@H](C)C(=O)N[C@@H](Cc2ccccc2)C(=O)N[C@@H](COC(C)(C)C)C(=O)N1C [pd167] ([dNMeA]FS(tBu)[NMeL]T[Sar][NMeV]F[NMePhe(3-Cl)][NMeL][NMeD]-Piperidide; lactam N-11)	–	1.7	1.7e-06	–
CC(C)NCC(O)COc1cccc2ccccc12 (centres unmarked) [propranolol]	approximately 40%	–	–	approximately 8%
